The record followed here is patent US12643867B2, “Compositions and uses thereof” (University of Virginia Patent Foundation, priority 2017, dated 2026).

Holding throughout (experiment): SILAC LC-MS ATP acyl phosphate probe competition, native kinases in HEK293T
Holding throughout (type): binding

In experiment [1] the target is T1, IRAK1 (Interleukin-1 receptor-associated kinase 1) (Homo sapiens, UniProt P51617).
T1 construct: measured against >50 native kinases quantified in HEK293T soluble proteomes; endogenous in cells; host or cells: HEK293T soluble proteome
T1 sequence (P51617 whole entry): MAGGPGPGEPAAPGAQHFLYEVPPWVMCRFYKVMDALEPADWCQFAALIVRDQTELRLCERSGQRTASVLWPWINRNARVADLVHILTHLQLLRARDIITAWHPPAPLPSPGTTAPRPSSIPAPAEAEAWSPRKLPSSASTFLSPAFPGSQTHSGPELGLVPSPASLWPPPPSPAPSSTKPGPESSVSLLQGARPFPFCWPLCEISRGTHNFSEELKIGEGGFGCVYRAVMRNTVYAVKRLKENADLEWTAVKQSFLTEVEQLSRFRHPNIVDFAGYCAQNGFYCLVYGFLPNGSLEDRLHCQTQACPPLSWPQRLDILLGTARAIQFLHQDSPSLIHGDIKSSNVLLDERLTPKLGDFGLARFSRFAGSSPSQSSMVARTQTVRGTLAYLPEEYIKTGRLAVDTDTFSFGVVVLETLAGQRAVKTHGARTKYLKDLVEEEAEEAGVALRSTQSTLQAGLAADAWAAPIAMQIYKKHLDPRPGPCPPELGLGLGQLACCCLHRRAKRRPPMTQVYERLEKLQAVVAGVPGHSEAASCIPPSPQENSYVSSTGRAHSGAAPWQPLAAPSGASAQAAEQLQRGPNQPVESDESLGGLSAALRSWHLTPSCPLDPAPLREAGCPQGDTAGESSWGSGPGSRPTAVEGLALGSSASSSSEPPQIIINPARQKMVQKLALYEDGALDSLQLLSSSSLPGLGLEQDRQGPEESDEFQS
The settings on record: site Lys2; ATP 1 mM; Ketanserin, Ritanserin 100 μM; RF001 1 mM. Put shortly:
(§1)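 HEK293T SILAC proteomes, 2 mg/ml; heavy + compound (from 50× DMSO stock), light + DMSO, 30 min, 25° C. Mix 1:1, MeOH/CHCl3 extraction, DTT/iodoacetamide, trypsin/Lys-C 3 h 37° C. Avidin enrichment of desthiobiotin-modified peptides; Orbitrap Q Exactive Plus LC-MS, top-10 DDA.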

In experiment [2] the target is T2, SLK (CTCL tumor antigen se20-9) (Homo sapiens, UniProt Q9H2G2).
T2 construct: Native kinases; endogenous in cells; host or cells: HEK293T soluble proteome
T2 sequence (Q9H2G2 whole entry): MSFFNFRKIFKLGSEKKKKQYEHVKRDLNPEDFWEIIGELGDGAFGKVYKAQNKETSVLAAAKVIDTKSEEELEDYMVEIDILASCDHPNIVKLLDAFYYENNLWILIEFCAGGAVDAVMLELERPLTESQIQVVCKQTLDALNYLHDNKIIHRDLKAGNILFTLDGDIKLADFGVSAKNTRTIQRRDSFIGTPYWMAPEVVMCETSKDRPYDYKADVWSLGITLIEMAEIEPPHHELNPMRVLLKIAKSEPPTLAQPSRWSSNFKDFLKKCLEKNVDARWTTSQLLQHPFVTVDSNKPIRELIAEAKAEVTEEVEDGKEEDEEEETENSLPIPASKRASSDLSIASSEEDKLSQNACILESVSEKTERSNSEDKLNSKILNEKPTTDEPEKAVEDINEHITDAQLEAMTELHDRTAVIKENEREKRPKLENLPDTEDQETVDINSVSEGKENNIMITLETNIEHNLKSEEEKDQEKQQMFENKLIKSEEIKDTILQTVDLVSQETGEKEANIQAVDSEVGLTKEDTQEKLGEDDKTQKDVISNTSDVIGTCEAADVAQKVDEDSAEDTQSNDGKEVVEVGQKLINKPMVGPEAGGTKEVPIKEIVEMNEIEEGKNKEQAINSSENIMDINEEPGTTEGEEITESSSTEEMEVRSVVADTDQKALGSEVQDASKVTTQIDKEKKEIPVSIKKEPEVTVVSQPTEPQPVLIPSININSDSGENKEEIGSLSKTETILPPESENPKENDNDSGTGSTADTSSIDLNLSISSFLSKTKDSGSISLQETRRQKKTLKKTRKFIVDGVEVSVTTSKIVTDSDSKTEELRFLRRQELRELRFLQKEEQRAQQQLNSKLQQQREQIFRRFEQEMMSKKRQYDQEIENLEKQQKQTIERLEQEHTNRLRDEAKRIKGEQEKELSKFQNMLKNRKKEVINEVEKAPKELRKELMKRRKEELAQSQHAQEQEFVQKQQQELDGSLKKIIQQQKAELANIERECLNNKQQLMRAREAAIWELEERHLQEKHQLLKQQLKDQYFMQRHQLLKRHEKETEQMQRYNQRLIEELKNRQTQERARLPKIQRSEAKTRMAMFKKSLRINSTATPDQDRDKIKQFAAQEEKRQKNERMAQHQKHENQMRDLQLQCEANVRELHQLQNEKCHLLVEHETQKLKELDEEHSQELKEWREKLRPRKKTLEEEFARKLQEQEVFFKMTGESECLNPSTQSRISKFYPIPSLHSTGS
The settings on record: site Lys2; ATP 1 mM; Ketanserin, Ritanserin 100 μM; RF001 1 mM. In short, it runs like this: as §1

Experiment [3] addresses T3, KCC1D (Calcium/calmodulin-dependent protein kinase type 1D) (Homo sapiens, UniProt Q8IU85).
T3 construct: measured against >50 native kinases quantified in HEK293T soluble proteomes; endogenous in cells; host or cells: HEK293T soluble proteome
The following applies: site Lys1; ATP 1 mM; Ketanserin, Ritanserin 100 μM; RF001 1 mM. In short, it runs like this:
as §1

Experiment [4] concerns the target T4, E2AK2 (Interferon-induced, double-stranded RNA-activated protein kinase) (Homo sapiens, UniProt P19525).
T4 construct: measured against >50 native kinases quantified in HEK293T soluble proteomes; endogenous in cells; host or cells: HEK293T soluble proteome
The settings on record: site Lys2; ATP 1 mM; Ketanserin, Ritanserin 100 μM; RF001 1 mM. Put shortly:
as §1

Experiment [5] deals with T5, MP2K6 (Dual specificity mitogen-activated protein kinase kinase 6) (Homo sapiens, UniProt P52564).
T5 construct: Native kinases; endogenous in cells; host or cells: HEK293T soluble proteome
T5 sequence (P52564 1-334): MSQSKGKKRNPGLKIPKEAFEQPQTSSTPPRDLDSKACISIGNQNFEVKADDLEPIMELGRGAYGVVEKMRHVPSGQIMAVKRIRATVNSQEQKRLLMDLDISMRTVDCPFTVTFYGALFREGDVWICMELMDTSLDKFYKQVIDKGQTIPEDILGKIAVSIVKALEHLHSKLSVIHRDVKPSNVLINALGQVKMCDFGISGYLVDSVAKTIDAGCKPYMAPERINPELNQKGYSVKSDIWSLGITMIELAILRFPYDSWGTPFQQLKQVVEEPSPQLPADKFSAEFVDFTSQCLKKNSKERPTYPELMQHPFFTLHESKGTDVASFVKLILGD
The following applies: site Lys1; ATP 1 mM; Ketanserin, Ritanserin 100 μM; RF001 1 mM. Put shortly: as §1

Experiment [6] deals with T6, CDK5 (Cell division protein kinase 5) (Homo sapiens, UniProt Q00535).
T6 construct: measured against >50 native kinases quantified in HEK293T soluble proteomes; endogenous in cells; host or cells: HEK293T soluble proteome
T6 sequence (Q00535 whole entry): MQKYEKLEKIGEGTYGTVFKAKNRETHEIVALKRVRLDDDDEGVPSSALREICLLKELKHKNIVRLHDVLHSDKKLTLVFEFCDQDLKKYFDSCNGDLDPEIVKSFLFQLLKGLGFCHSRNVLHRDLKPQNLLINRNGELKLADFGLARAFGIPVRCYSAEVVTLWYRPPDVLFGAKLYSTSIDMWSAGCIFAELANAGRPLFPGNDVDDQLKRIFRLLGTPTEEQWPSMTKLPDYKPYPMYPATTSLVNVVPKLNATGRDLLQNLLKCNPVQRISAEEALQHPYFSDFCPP
The following applies: site Lys2; ATP 1 mM; Ketanserin, Ritanserin 100 μM; RF001 1 mM. Put shortly:
as §1

Experiment [7] has as its target T7, RAF1 (RAF proto-oncogene serine/threonine-protein kinase) (Homo sapiens, UniProt P04049).
T7 construct: Native kinases; endogenous in cells; host or cells: HEK293T soluble proteome
The following applies: site Lys2; ATP 1 mM; Ketanserin, Ritanserin 100 μM; RF001 1 mM. In short, it runs like this: as §1

Experiment [8] addresses T8, KS6B1 (Ribosomal protein S6 kinase 1, p70 S6 kinase alpha) (Homo sapiens, UniProt P23443).
T8 construct: measured against >50 native kinases quantified in HEK293T soluble proteomes; endogenous in cells; host or cells: HEK293T soluble proteome
The settings on record: site Lys2; ATP 1 mM; Ketanserin, Ritanserin 100 μM; RF001 1 mM. In short, it runs like this: as §1

The target of experiment [9] is T9, SMG1 (Serine/threonine-protein kinase SMG1) (Homo sapiens, UniProt Q96Q15).
T9 construct: Native kinases; endogenous in cells; host or cells: HEK293T soluble proteome
The following applies: site ATP; ATP 1 mM; Ketanserin, Ritanserin 100 μM; RF001 1 mM. Put shortly: as §1

T3 sequence (Q8IU85 whole entry): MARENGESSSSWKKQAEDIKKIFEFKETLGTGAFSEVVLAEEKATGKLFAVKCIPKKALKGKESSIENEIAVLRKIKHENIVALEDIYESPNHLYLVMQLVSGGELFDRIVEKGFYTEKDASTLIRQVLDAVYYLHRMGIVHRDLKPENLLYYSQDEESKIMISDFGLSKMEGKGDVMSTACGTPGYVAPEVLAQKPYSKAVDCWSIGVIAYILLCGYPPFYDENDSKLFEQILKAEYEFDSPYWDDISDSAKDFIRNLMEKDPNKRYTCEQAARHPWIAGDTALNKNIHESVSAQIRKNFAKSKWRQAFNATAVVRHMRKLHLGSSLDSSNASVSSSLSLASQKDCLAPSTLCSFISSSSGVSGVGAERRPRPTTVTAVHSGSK
T7 sequence (P04049 whole entry): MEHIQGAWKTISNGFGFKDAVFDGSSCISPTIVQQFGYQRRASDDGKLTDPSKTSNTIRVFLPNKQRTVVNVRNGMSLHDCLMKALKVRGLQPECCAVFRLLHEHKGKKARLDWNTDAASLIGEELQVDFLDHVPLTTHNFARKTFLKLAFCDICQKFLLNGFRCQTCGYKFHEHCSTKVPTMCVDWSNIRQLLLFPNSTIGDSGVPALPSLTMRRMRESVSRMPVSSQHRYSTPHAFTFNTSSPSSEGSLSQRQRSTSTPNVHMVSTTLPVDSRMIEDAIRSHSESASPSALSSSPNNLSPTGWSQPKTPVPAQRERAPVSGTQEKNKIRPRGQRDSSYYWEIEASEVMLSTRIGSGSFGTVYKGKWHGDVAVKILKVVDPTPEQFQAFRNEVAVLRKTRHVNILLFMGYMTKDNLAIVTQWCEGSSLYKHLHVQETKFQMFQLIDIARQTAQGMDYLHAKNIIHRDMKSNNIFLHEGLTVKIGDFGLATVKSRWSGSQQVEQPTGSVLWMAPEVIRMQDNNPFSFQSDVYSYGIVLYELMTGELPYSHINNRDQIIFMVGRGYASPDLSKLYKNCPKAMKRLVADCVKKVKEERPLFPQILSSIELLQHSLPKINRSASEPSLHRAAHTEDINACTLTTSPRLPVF
T8 sequence (P23443 whole entry): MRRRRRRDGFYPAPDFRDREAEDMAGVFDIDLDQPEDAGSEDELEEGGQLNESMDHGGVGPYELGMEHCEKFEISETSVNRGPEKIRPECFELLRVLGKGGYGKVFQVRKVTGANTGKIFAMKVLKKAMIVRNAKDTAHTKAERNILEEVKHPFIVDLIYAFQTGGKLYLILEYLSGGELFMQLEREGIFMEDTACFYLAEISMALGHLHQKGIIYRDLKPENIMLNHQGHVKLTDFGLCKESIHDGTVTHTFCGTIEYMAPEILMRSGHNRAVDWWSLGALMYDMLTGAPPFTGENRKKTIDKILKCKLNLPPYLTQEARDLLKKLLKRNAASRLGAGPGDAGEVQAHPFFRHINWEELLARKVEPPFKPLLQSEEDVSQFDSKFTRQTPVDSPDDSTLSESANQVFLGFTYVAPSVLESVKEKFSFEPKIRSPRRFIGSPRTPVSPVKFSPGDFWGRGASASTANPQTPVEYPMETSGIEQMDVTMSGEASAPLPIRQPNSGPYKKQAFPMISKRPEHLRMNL
T4 sequence (P19525 whole entry): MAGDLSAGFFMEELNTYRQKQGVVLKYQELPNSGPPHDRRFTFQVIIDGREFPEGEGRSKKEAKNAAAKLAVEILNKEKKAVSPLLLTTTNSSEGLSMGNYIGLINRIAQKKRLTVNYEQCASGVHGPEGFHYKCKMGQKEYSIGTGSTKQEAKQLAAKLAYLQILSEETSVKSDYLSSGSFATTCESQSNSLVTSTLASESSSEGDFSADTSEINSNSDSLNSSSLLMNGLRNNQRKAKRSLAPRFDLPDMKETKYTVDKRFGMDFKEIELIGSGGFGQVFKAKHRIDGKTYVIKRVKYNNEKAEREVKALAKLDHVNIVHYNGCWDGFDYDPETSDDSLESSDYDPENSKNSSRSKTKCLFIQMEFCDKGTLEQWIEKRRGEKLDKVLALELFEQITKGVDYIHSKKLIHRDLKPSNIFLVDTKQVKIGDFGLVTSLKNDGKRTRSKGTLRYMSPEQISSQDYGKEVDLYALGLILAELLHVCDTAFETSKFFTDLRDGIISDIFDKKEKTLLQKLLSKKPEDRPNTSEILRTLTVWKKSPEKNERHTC

For the compound `Cc1nc2sccn2c(=O)c1CCN1CCC(=C(c2ccc(F)cc2)c2ccc(F)cc2)CC1` [Ritanserin], in experiment [1], the “SILAC ratio, IRAK1 probe-modified peptide” value is reported as 2.6. The “SILAC ratio, SLK probe-modified peptide” value in experiment [2] was found to be 3.0. Moreover, the “SILAC ratio, KCC1D probe-modified peptide” value in experiment [3] turned out to be 2.3. In addition, the “SILAC ratio, E2AK2 probe-modified peptide” value in [4] is on record as 2.8. For the same compound, the “SILAC ratio, MP2K6 probe-modified peptide” value in [5] is listed as 2.2. Also, in experiment [6], the “SILAC ratio, CDK5 probe-modified peptide” value was found to be 1.9. In [7], the “SILAC ratio, RAF1 probe-modified peptide” value came out at 3.9. For the same compound, in [8], the “SILAC ratio, KS6B1 probe-modified peptide” value is listed as 1.3. In addition, in experiment [9], the “SILAC ratio, SMG1 probe-modified peptide” value was determined as 1.7.
`Fc1ccc(C(=C2CCNCC2)c2ccc(F)cc2)cc1` [RF001, 4-(Bis(4-fluorophenyl)methylene) piperidine]: the “SILAC ratio, IRAK1 probe-modified peptide” value in experiment [1] is 2.2. For the same compound, the “SILAC ratio, SLK probe-modified peptide” value in experiment [2] is 1.5. For the same compound, the “SILAC ratio, KCC1D probe-modified peptide” value in experiment [3] amounted to 1.1. In addition, the “SILAC ratio, E2AK2 probe-modified peptide” value in experiment [4] is 1.2. Further, in experiment [5], the “SILAC ratio, MP2K6 probe-modified peptide” value is recorded as 1.1. For the same compound, in experiment [6], the “SILAC ratio, CDK5 probe-modified peptide” value turned out to be 1.1. In addition, in experiment [7], the “SILAC ratio, RAF1 probe-modified peptide” value is 2.1. Besides, the “SILAC ratio, KS6B1 probe-modified peptide” value in experiment [8] is recorded as 1.0. Besides, the “SILAC ratio, SMG1 probe-modified peptide” value in experiment [9] was 1.0.
Take `O=C(c1ccc(F)cc1)C1CCN(CCn2c(=O)[nH]c3ccccc3c2=O)CC1` [Ketanserin]: the “SILAC ratio, IRAK1 probe-modified peptide” value in experiment [1] is listed as 1.4. Moreover, the “SILAC ratio, SLK probe-modified peptide” value in experiment [2] worked out at 1.3. For the same compound, the “SILAC ratio, KCC1D probe-modified peptide” value in experiment [3] is recorded as 1.5. Further, the “SILAC ratio, E2AK2 probe-modified peptide” value in experiment [4] was 1.3. In addition, the “SILAC ratio, MP2K6 probe-modified peptide” value in [5] turned out to be 1.4. For the same compound, in experiment [6], the “SILAC ratio, CDK5 probe-modified peptide” value was found to be 1.3. Also, the “SILAC ratio, RAF1 probe-modified peptide” value in [7] came to 1.4. For the same compound, the “SILAC ratio, KS6B1 probe-modified peptide” value in experiment [8] came to 1.2. In addition, the “SILAC ratio, SMG1 probe-modified peptide” value in experiment [9] turned out to be 1.3.
